Results published in ChEMBL document CHEMBL5725383, “Ethynyl derivatives” (2017).

Biological target: Metabotropic glutamate receptor 4 (Homo sapiens, UniProt Q14833)
Experiment: Ca2+ Mobilization In Vitro Assay: About 24 hrs before an experiment, 5×10^4 cells/well were seeded in poly-D-lysine coated, black/clear-bottomed 96-well plates. The cells were loaded with 2.5 μM Fluo-4AM in loading buffer (1×HBSS, 20 mM HEPES) for 1 hr at 37° C. and washed five times with loading buffer. The cells were transferred into a Functional Drug Screening System 7000 (Hamamatsu, Paris, France), and 11 half logarithmic serial dilutions of test compound at 37° C. were added and the cells were incubated for 10-30 min. with on-line recording of fluorescence. Following this pre-incubation step, the agonist (2S)-2-amino-4-phosphonobutanoic acid (L-AP4) was added to the cells at a concentration corresponding to EC20 with on-line recording of fluorescence; in order to account for day-to-day variations in the responsiveness of cells, the EC20 of L-AP4 was determined immediately ahead of each experiment by recording of a full dose-response curve of L-AP4. Responses were measured as peak increase in fluorescence minus basal (i.e. fluorescence without addition of L-AP4), normalized to the maximal stimulatory effect obtained with saturating concentrations of L-AP4. Graphs were plotted with the % maximal stimulatory using XLfit, a curve fitting program that iteratively plots the data using Levenburg Marquardt algorithm. […]

Sequence of Metabotropic glutamate receptor 4 (Q14833 whole entry): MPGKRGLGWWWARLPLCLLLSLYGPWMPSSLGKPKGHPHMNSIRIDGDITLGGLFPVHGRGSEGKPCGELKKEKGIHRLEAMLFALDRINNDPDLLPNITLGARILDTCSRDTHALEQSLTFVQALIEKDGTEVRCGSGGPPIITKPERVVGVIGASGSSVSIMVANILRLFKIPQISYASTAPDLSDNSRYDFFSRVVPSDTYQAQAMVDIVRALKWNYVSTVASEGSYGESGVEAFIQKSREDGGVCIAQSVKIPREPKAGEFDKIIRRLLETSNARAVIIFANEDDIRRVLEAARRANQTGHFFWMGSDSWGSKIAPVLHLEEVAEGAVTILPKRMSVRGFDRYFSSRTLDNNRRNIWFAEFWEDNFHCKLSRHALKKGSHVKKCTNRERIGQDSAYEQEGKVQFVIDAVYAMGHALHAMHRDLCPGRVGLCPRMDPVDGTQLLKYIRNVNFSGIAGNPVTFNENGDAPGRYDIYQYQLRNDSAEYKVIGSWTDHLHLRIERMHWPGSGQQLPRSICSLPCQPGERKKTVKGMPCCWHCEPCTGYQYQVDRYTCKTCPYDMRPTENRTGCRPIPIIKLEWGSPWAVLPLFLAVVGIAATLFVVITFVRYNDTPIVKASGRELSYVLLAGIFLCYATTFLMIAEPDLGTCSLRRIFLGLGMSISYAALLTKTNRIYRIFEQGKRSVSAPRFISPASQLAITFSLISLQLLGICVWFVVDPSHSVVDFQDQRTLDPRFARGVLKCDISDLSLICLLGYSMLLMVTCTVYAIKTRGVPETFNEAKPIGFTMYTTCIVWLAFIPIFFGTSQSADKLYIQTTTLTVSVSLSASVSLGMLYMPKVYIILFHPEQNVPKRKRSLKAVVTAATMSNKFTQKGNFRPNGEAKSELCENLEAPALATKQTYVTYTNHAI

O=c1[nH]c2ncsc2c(=O)n1-c1c(F)cc(C#Cc2ccccc2)cc1F
EC50: 187 nM
